Here are results for 27 compounds from patent publication US20230096028A1, “BICYCLIC HETEROCYCLYL COMPOUNDS AND USES THEREOF” (Revolution Medicines, Inc., priority 2019, published 2023).

Where two headings read alike, the source gives them in different places.

For experiment [1], the system named is PC-9 cells (EGFR Ex19Del). Description: Potency Assay: pERK (SOS1 pERK IC50 Assay, AlphaLISA SureFire Ultra p-ERK1/2). It is filed as cell-based. The following applies: Homo sapiens, read-out: SOS1 pERK IC50. The essentials:
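PC-9 (EGFR Ex19Del) cells plated overnight, then treated 1 h at 37° C. with 10-point 3-fold dilutions (top 10 μM final) in duplicate. Lysate pERK1/2 measured by AlphaLISA SureFire Ultra; IC50 from 4-parameter sigmoidal fit.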
(In general: In Alpha technology, singlet oxygen from a donor bead excites a nearby acceptor bead.)

The target of experiment [2] is T1, SOS1 catalytic domain (residues 564-1049) (Homo sapiens, UniProt Q07889).
T1 sequence (Q07889 564-1049): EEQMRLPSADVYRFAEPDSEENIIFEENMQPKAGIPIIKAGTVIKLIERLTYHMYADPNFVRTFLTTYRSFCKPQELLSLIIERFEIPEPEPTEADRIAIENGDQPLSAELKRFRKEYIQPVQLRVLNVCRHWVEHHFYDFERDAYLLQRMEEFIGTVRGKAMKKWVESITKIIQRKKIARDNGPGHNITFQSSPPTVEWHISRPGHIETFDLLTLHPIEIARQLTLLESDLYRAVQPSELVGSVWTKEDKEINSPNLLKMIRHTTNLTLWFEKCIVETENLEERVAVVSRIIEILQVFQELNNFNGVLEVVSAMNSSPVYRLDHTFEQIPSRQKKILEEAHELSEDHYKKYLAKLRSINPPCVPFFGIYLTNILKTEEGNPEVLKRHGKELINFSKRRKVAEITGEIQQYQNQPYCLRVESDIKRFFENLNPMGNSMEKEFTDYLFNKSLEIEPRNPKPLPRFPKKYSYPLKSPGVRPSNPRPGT
Description: Potency Assay: binding affinity to SOS1 using Surface Plasmon Resonance (SPR). Also on record: SOS1 catalytic domain (residues 564-1049) immobilized on a sensor chip. The conditions noted are these: immobilized SOS1 catalytic domain (residues 564-1049), read-out: SOS1 SPR Equilibrium Kd. A digest of the protocol:
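Avi-tagged SOS1 catalytic domain captured on streptavidin chip (~6000 RU) in 0.01 M HEPES, 0.15 M NaCl, 0.05% P20. Compound dilution series flowed at 50 μL/min for association, then buffer for dissociation, with double reference subtraction. Kd derived from end-of-association binding response plotted against concentration.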

Experiment [3] deals with T1, SOS1 catalytic domain (residues 564-1049). Kind of experiment: Mode of Action Assay: inhibition of SOS1 nucleotide exchange activity (SOS1 TR-FRET IC50 Assay). (In general: TR-FRET usually uses a lanthanide donor and a delayed reading to cut background.)
Setting [4] is: PC-9 cells (EGFR Ex19Del), 1 hour incubation, AlphaLISA p-ERK1/2.

By IC50 is commonly meant the concentration at which inhibition is half-maximal. One may read the Kd as the free concentration of one partner at which half of the binding sites on the other are occupied at equilibrium, for simple one-to-one binding. For `C[C@@H](Nc1nc(Cl)nc2c1CN(C(=O)N1CCOCC1)C2)c1cccc(C(F)(F)C2CN(C)CCO2)c1` (stereo partly drawn) [Example 485, 2-chloro-N-[(1R)-1-{3-[difluoro(4-methylmorpholin-2-yl)methyl]phenyl}ethyl]-6-(morpholine-4-carbonyl)-5H,6H,7H-pyrrolo[3,4-d]pyrimidin-4-amine], the IC50 in experiment [1] (setting [4]) and in experiment [3] was less than 1000 nM each time. In addition, in experiment [2], the dissociation constant (Kd) was less than 400 nM.
`C[C@@H](Nc1nc(Cl)nc2c1CN(C(=O)N1CCOCC1)C2)c1cccc(C(F)(F)C2COCCN2C)c1` (stereo partly drawn) [Example 460, (2-chloro-4-(((1R)-1-(3-(difluoro(4-methylmorpholin-3-yl)methyl)phenyl)ethyl)amino)-5,7-dihydro-6H-pyrrolo[3,4-d]pyrimidin-6-yl)(morpholino)methanone]: the concentration for half-maximal inhibition (IC50) in experiment [1] (setting [4]) and in experiment [3] was less than 1000 nM each time. Also, the Kd in experiment [2] was less than 400 nM.
As for `C[C@@H](Nc1nc(Cl)nc2c1CN(C(=O)N1C[C@H]3COC[C@H]3C1)C2)c1cccc(C(F)F)c1F` [Example 410], the IC50 in experiment [1] (setting [4]) and in experiment [3] was less than 1000 nM each time. Further, in experiment [2], the Kd is less than 400 nM.
Regarding `C[C@@H](Nc1nc(Cl)nc2c1CN(S(=O)(=O)C1COC1)CC2)c1cc(N)cc(C(F)(F)F)c1` [Example 453], the IC50 in experiment [1] (setting [4]) and in experiment [3] was less than 1000 nM throughout. Besides, the Kd in experiment [2] is less than 400 nM.
For the compound `C[C@@H](Nc1nc(Cl)nc2c1CN(C(=O)C1(F)CNC1)C2)c1cccc(C(F)F)c1F` [Example 282], the IC50 in experiment [1] (setting [4]) and in experiment [3] was less than 1000 nM each time. For the same compound, the Kd in experiment [2] was less than 400 nM.
As to `COC1(C(=O)N2Cc3nc(Cl)nc(NC(C)c4cccc(C(F)(F)CO)c4F)c3C2)CCOCC1` (stereo not drawn) [Example 471, 2-[3-(1-{[2-chloro-6-(4-methoxyoxane-4-carbonyl)-5H,6H,7H-pyrrolo[3,4-d]pyrimidin-4-yl]amino}ethyl)-2-fluorophenyl]-2,2-difluoroethan-1-ol], the IC50 in experiment [1] (setting [4]) and in experiment [3] was less than 1000 nM each time. The Kd in experiment [2] was less than 400 nM.
Consider `C[C@@H]1CN(C(=O)N2Cc3nc(Cl)nc(N[C@H](C)c4cc(N)cc(C(F)(F)F)c4)c3C2)C[C@H](C)N1` [Example 146], for which the IC50 in experiment [1] (setting [4]) and in experiment [3] was less than 1000 nM each time. The Kd in experiment [2] was less than 400 nM.
On to `C[C@@H](Nc1nc(CN2CCOCC2)nc2c1CN(C(=O)N1CCOCC1)C2)c1cccc(C(F)F)c1F` [Example 539], for which the results for the 50% inhibitory concentration (IC50) in experiment [1] (setting [4]) and in experiment [3] were greater than 1000 nM and less than 1000 nM, respectively. Also, the dissociation constant (Kd) in experiment [2] was greater than 400 nM.
Consider `C[C@@H](Nc1nc(CN)nc2c1CN(C(=O)N1CCOCC1)C2)c1cc(N)cc(C(F)(F)F)c1` [Example 130, N-[(1R)-1-[3-amino-5-(trifluoromethyl)phenyl]ethyl]-2-(aminomethyl)-6-(morpholine-4-carbonyl)-5H,6H,7H-pyrrolo[3,4-d]pyrimidin-4-amine], for which the concentration for half-maximal inhibition (IC50) was greater than 1000 nM in experiment [1] (setting [4]) and less than 1000 nM in experiment [3]. Moreover, in experiment [2], the Kd was less than 400 nM.
For `C[C@@H](Nc1nc(Cl)nc2c1CN(C(=O)N1CCNC(c3ccncc3)C1)C2)c1cccc(C(F)F)c1F` (stereo partly drawn) [Example 401] the same measures were less than 1000 nM, less than 1000 nM and less than 400 nM.
On the same counts, the results for `COC1(C(=O)N2Cc3nc(Cl)nc(N[C@H](C)c4cc(N)cc(C(F)(F)F)c4)c3C2)CCOCC1` [Example 93] are less than 1000 nM, less than 1000 nM and less than 400 nM.
As for `C[C@@H](Nc1nc(Cl)nc2c1CN(C(=O)C1(F)CNC1)C2)c1cc(N)cc(C(F)(F)F)c1` [Example 263], the IC50 in experiment [1] (setting [4]) and in experiment [3] was less than 1000 nM each time. Besides, in experiment [2], the Kd was less than 400 nM.
Turning to `C[C@@H](Nc1nc(Cl)nc2c1CN(C(=O)N1CCOCC1)C2)c1cccc(C(F)F)c1Cl` [Example 522, 2-chloro-N-[(1R)-1-[2-chloro-3-(difluoromethyl)phenyl]ethyl]-6-(morpholine-4-carbonyl)-5H,6H,7H-pyrrolo[3,4-d]pyrimidin-4-amine], the IC50 in experiment [1] (PC-9, 1 h) is less than 1000 nM; in experiment [3], less than 1000 nM. For the same compound, the Kd in experiment [2] is less than 400 nM.
With `C[C@@H](Nc1nc(Cl)nc2c1CN(C(=O)N1CC3(CNC3)C1)C2)c1cccc(C(F)F)c1F` [Example 393], the IC50 in experiment [1] (setting [4]) was greater than 1000 nM; in experiment [3] it was less than 1000 nM. Also, in experiment [2], the Kd was less than 400 nM.
For `C[C@@H](Nc1nc(Cl)nc2c1CN(C(=O)C13CCN(CC1)C3)C2)c1cccc(C(F)F)c1F` [Example 312] the same measures were less than 1000 nM, less than 1000 nM and less than 400 nM.
On the same counts, the results for `C[C@@H](Nc1nc(Cl)nc2c1C[C@H](N1CCOCC1)CC2)c1cc(N)cc(C(F)(F)F)c1` (single isomer, unassigned) [Example 169] are less than 1000 nM, less than 1000 nM and less than 400 nM.
`C[C@@H](Nc1nc(Cl)nc2c1CN(C(=O)c1ccc3c(n1)CCNC3)C2)c1cc(N)cc(C(F)(F)F)c1` [Example 82]: the half-inhibitory concentration (IC50) in experiment [1] (setting [4]) and in experiment [3] was less than 1000 nM each time. For the same compound, the Kd in experiment [2] is less than 400 nM.
`C[C@@H](Nc1nc(Cl)nc2c1CN(S(=O)(=O)N1CCOCC1)CC2)c1cc(N)cc(C(F)(F)F)c1` [Example 29, N-[(1R)-1-[3-amino-5-(trifluoromethyl)phenyl]ethyl]-2-chloro-6-morpholinosulfonyl-7,8-dihydro-5H-pyrido[4,3-d]pyrimidin-4-amine]: the IC50 in experiment [1] (setting [4]) and in experiment [3] was less than 1000 nM each time. In addition, the Kd in experiment [2] was less than 400 nM.
With `Cc1nc2c(c(N[C@H](C)c3cc(N)cc(C(F)(F)F)c3)n1)CN(C(=O)OC1CCOCC1)C2` [Example 118, oxan-4-yl 4-{[(1R)-1-[3-amino-5-(trifluoromethyl)phenyl]ethyl]amino}-2-methyl-5H,6H,7H-pyrrolo[3,4-d]pyrimidine-6-carboxylate], the IC50 is less than 1000 nM in experiment [1] (PC-9, 1 h) and less than 1000 nM in experiment [3]. The Kd in experiment [2] was greater than 400 nM.
Consider `C[C@@H](Nc1nc(Cl)nc2c1CN(C(=O)N1CCNC(C(F)(F)F)C1)C2)c1cc(N)cc(C(F)(F)F)c1` (stereo partly drawn) [Example 359], for which the IC50 in experiment [1] (setting [4]) and in experiment [3] was less than 1000 nM in each case. For the same compound, the dissociation constant Kd in experiment [2] was less than 400 nM.
Turning to `C[C@@H](Nc1nc(Cl)nc2c1CC(C(=O)N1CCOCC1)CC2)c1cc(N)cc(C(F)(F)F)c1` (stereo partly drawn) [Example 165, N-[(1R)-1-[3-amino-5-(trifluoromethyl)phenyl]ethyl]-2-chloro-6-(morpholine-4-carbonyl)-5,6,7,8-tetrahydroquinazolin-4-amine], the IC50 in experiment [1] (setting [4]) and in experiment [3] was less than 1000 nM each time. Also, in experiment [2], the dissociation constant (Kd) is less than 400 nM.
Turning to `C[C@@H](Nc1nc(Cl)nc2c1CN(C(=O)c1ncccc1C(F)(F)F)C2)c1cc(N)cc(C(F)(F)F)c1` [Example 86], the IC50 in experiment [1] (setting [4]) and in experiment [3] was less than 1000 nM in each case. For the same compound, the Kd in experiment [2] is less than 400 nM.
As to `C[C@@H](Nc1nc(Cl)nc2c1CN(C(=O)c1cnccn1)CC2)c1cc(N)cc(C(F)(F)F)c1` [Example 246], the IC50 in experiment [1] (setting [4]) and in experiment [3] was greater than 1000 nM throughout. Further, in experiment [2], the Kd was greater than 400 nM.
Consider `C[C@@H](Nc1nc(Cl)nc2c1CN(C(=O)C1CN(C3COC3)C1)C2)c1cccc(C(F)F)c1F` [Example 339], for which the IC50 in experiment [1] (setting [4]) and in experiment [3] was less than 1000 nM in each case. Further, the equilibrium dissociation constant (Kd) in experiment [2] was less than 400 nM.
Regarding `COC1(C(=O)N2Cc3nc(Cl)nc(N[C@H](C)c4cccc(C(F)(F)CO)c4)c3C2)COC1` [Example 241], the IC50 in experiment [1] (setting [4]) and in experiment [3] was less than 1000 nM each time. Further, the Kd in experiment [2] was less than 400 nM.
Regarding `C[C@@H](Nc1nc(Cl)nc2c1CN(C(=O)c1cccc3c1OCCN3)C2)c1cc(N)cc(C(F)(F)F)c1` [Example 77], the IC50 in experiment [1] (setting [4]) and in experiment [3] was less than 1000 nM in each case. In addition, the dissociation constant Kd in experiment [2] was greater than 400 nM.
On to `C[C@@H](Nc1nc(C2CNC2)nc2c1CN(C(=O)N1CCOCC1)C2)c1cccc(C(F)F)c1F` [Example 446, [2-(azetidin-3-yl)-4-[[(1R)-1-[3-(difluoromethyl)-2-fluoro-phenyl]ethyl]amino]-5,7-dihydropyrrolo[3,4-d]pyrimidin-6-yl]-morpholino-methanone], for which the IC50 was greater than 1000 nM in experiment [1] (setting [4]) and less than 1000 nM in experiment [3]. For the same compound, in experiment [2], the Kd is less than 400 nM.
